In brackets after ≈: the same amount, converted by molar mass. Where two headings read alike, the source gives them in different places.
Experiments:
PICH = test: microbe, parasite or virus in culture; conditions: Vero, read-out: Concentration required to give 80% plaque reduction
RVFV = test: microbe, parasite or virus in culture; assay type: cell-based; conditions: Rift Valley fever virus, SW13, read-out: Concentration required to give 80% plaque reduction
YF = test: microbe, parasite or virus in culture; assay type: cell-based; conditions: MK2, read-out: Concentration required to give 80% plaque reduction
DEN-2 = test: microbe, parasite or virus in culture; conditions: SW13, read-out: Concentration required to give 80% plaque reduction
VEE = test: microbe, parasite or virus in culture; assay type: cell-based; conditions: Vero; read-out: Concentration required to give 80% plaque reduction
Trypanosoma rhodesiense = test: In vitro antitrypanosomal screening, semi-automated microtest system; assay type: cell-based
Plasmodium falciparum = test: In vitro antimalarial screening, semi-automated microdilution technique; assay type: cell-based; conditions: column head in nanograms/ml, footnote in μg/ml, read-out: ED50 (out-of-range entries)
From the text: Desjardins, R. E.; Canfield, C. J.; Haynes, J. D.; and Chulay, J. D.: Quantitative Assessment of Antimalarial Activity In Vitro by A Semi-automated Microdilution Technique. Antimicrob. Ag. & Chemother., 16:710-718, 1979.

malaria = conditions: A Survey of Antimalarial Drugs, 1941-1945; cited from earlier work
[1] = 3H-Thymidine, read-out: ED50, 3H-Thymidine (out-of-range entries)

Question: Which results are given for `NC(=O)c1ncn([C@@H]2O[C@H](CO)[C@@H](O)[C@H]2O)n1` [Ribavirin]?
Answer: EC80 (PICH): 100 µg/mL (≈ 409 µM); EC80 (RVFV): 25 µg/mL (≈ 102 µM); EC80 (YF): 50 µg/mL (≈ 205 µM); EC80 (DEN-2): 100 µg/mL (≈ 409 µM); EC80 (VEE): 100 µg/mL (≈ 409 µM)

Question: With `Nc1ccc(S(=O)(=O)Nc2ncccn2)cc1` [aluminum sulfadiazine] as the compound, how does the IC50 (Trypanosoma rhodesiense; [1]) read?
Answer: The IC50 was greater than 12.5 µg/mL.

Question: For `Nc1cccc(S(=O)(=O)Nc2ncc(Cl)cn2)c1` [metachloridine, 5-chloro-2-metanilamidopyrimidine], which IC50 (Trypanosoma rhodesiense; [1]) is on record?
Answer: Its IC50 is greater than 12.5 µg/mL.

Question: What about the IC50 (Trypanosoma rhodesiense; 14C-Leucine, read-out: ED50, 14C-Leucine (out-of-range entries)) of the same compound?
Answer: The IC50 was greater than 12.5 µg/mL.

Question: What about the IC50 (Plasmodium falciparum) of the same compound?
Answer: The IC50 was greater than 12.5 µg/mL.

Question: And the “antimalarial activity in screening tests” value (malaria)?
Answer: The value was “sufficiently active in screening tests for antimalarial effects”.

Question: For `Nc1ccc(S(=O)(=O)Nc2ncccn2)cc1` [sulfadiazine, 2-sulfanilaminidopyrimidine], which IC50 (Plasmodium falciparum) is on record?
Answer: The IC50 was greater than 12.5 µg/mL.

Question: Which IC50 (Trypanosoma rhodesiense; [1]) does the source give for `COc1cnc(NS(=O)(=O)c2ccc(N)cc2)nc1` [sulfameter] here?
Answer: Its IC50 is greater than 12.5 µg/mL.

From US4415565A, “Silver metachloridine in treatment of infections” (The United States of America as represented by the …, priority 1981, dated 1983)
